From EP1037627B1, “USE OF 11-(3-DIMETHYLAMINOPROPYLIDENE)-6,11-DIHYDRODIBENZ[B,E]OXEPIN-2-ACETIC ACID AND OF PHARMACEUTICALLY ACCEPTABLE SALTS THEREOF FOR THE MANUFACTURE OF A MEDICAMENT FOR THE TREATMENT OF NON-[…] OPHTHALMIC INFLAMMATORY DISORDERS AND FOR THE PREVENTION OF OCULAR NEOVASCULARIZATION” (Alcon Laboratories, Inc., priority 1998, dated 2000)
Several values for one entry are separate records, joined by “and”; a condition that tells them apart may be missing. Identical values can stand only once. Counter-ions that a name gives are not always drawn. Like-named read-outs stand apart in the source and are kept apart here.

Tests used:
[1] = test system: IL-8 Secretion in Human Conjunctival Epithelial Cells; assay: Inhibition of histamine-stimulated IL-8 secretion in cultured human conjunctival epithelial cells (ELISA); type: cell-based; conditions: for IC50: Homo sapiens, read-out: IL-8 IC50
Description: (§1) Methods detailing the preparation of primary epithelial cell cultures and cytokine release studies using these cells have been described. See […], et al., "Secretion of proinflammatory cytokines by human conjunctival epithelial cells," Ocul Immunol Inflamm., 5:117-128 (1997). Briefly, cultures of human conjunctival epithelial cells were initiated from donor tissues obtained within eight hours post mortem by various eye banks. The tissues were enzymatically digested overnight. Epithelial cells were gently scraped from the tissue surface, dissociated into a single cell suspension, and cultured in keratinocyte growth medium (Clonetics® , San Diego, CA). Cells were used only through passage 6. Cultures were maintained in a preconfluent state to prevent differentiation. Cells were identified as epithelial by positive keratin staining. […] Cells were plated at 2x10^4 cells/well and cultured overnight at 5% CO2/37°C. The following day, fresh medium containing test compound was added directly to wells and the cells were incubated for 30 minutes prior to 24-hour stimulation with histamine (30 μM). Three separate culture wells were used for each treatment group. At harvest, supernatants were collected, centrifuged at 200 x g, and stored at -20°C. Samples were analyzed for IL-6 and IL-8 by ELISA (R&D Systems, Minneapolis, MN) as directed by the manufacturer. The sensitivities of each ELISA are as follows: […] The antagonist potency (IC50) was defined as the concentration of the drug required to produce 50% inhibition of the agonist-stimulated functional response. Data derived from the cytokine assays were calculated as mean and standard error (SEM) values which represent the variability among identically treated culture wells. The dose-dependent effect of pharmacological agents and IC50's were determined by linear regression. Data are expressed as mean ± S.E.M. from 3 - 5 independent experiments.

[2] = test system: IL-6 Secretion in Human Conjunctival Epithelial Cells; assay: Inhibition of histamine-stimulated IL-6 secretion in cultured human conjunctival epithelial cells (ELISA); type: cell-based; conditions: for IC50: Homo sapiens, read-out: IL-6 IC50
Description: as §1

[3] = target: histamine H1-receptor; conditions: published values (Sharif et al. 1994; Yanni et al. 1997), read-out: H1 Binding Ki, cited from earlier work
[4] = HCE cells, 30 minutes preincubation with test compound, then 24-hour stimulation with histamine (30 µM), ELISA
[5] = IL-6 and IL-8 secretion IC50 compared with H1 binding affinity
[6] = HCE exposed to 30 µM of histamine

## c1ccc(CN(CC2=NCCN2)c2ccccc2)cc1 [Antazoline, 4,5-Dihydro-N-phenyl-N-(phenylmethyl)-1 H-imidazole-2-methanamine]
[1]; [4]
  IC50: 652 nM
[2]; [4]
  IC50: 1010 nM
[2]; [5]
  less potent inhibitors of IL-6 and IL-8 secretion than predicted from their histamine H1-receptor binding affinities: 20 - 140 fold
[3]; listed as antazoline
  Ki: 32 to 39 nM
[3]
  Ki: 38.4 nM

## CCOCCn1c(N2CCCN(C)CC2)nc2ccccc21 [Emedastine, 1H-Benzimidazole,1-(2-ethoxyethyl)-2-(hexahydro-4-methyl-1H-1,4-diazepin-1-yl),(E)-2-butenedioate (1:2)]
[1]; [4]
  IC50: 4 nM
[2]; [4]
  IC50: 2.5 nM
[3]
  Ki: 1.22 nM

## C[C@@H]1CN([C@H]2CC[C@](C#N)(c3ccc(F)cc3)CC2)CC[C@]1(C(=O)O)c1ccccc1 [Levocabastine, (-)-traps-1-[cis-4-Cyano-4-(p-fluorophenyl)cyclohexyl]-3-methyl-4-phenylisonipecotic acid monohydrochloride]
[1]; [4]
  IC50: 11.9 nM
[2]; [4]
  IC50: 25.1 nM
[3]
  Ki: 52.6 nM

## CN(C)CC/C=C1/c2ccccc2COc2ccc(CC(=O)O)cc21 [Olopatadine, Z-11-(3-Dimethylaminopropylidene)-6,11-dihydrodibenz[b,e]oxepin-2-acetic acid]
[1]; HCE
  IC50: 1.7 nM
[2]; HCE
  IC50: 5.5 nM
[2]; [5]
  more potent as an inhibitor of cytokine secretion than predicted from binding data: approximately 10 fold
[3]
  Ki: 36 nM and 32 to 39 nM

## CN(C)CCC(c1ccccc1)c1ccccn1 (stereo not shown) [Pheniramine, N,N-Dimethyl-γ-phenyl-2-pyridine-propanamine]
[1]; [4]
  IC50: 1220 nM
[2]; [4]
  IC50: 4830 nM
[2]; [5]
  less potent inhibitors of IL-6 and IL-8 secretion than predicted from their histamine H1-receptor binding affinities: 20 - 140 fold
[3]; listed as pheniramine
  Ki: 32 to 39 nM
[3]
  Ki: 33.9 nM

## NCCc1c[nH]cn1 [histamine]
[1]; [6]
  increased IL-8 secretion: 1.80 ± 0.28 fold above basal levels
[2]; [6]
  increased IL-6 secretion: 1.59 ± 0.19 fold above basal levels
